Measured values from patent US20110224214A1, “PROCESS FOR PREPARING POLYMORPH” (SANOFI-AVENTIS U.S. LLC, priority 2008, published 2011).
“Also recorded” adds a separate entry of the source.

What was measured:
[1] = target: peripheral-type benzodiazepine receptors (Homo sapiens, UniProt P30536); conditions: cited from earlier work
[2] = stability profile of the crystalline form; format: physicochemical
[3] = polymorphic stability during wet granulation (XRPD); format: physicochemical; conditions: wet granulation of Example 6, dried at 50° C. for 2 hours
Experimental: The sample prepared according the Example 5, above was used to prepare a wet granulation formulation with the following composition: […]
The drug substance product of Example 5, lactose, microcrystalline cellulose (Avicel®, available from FMC BioPolymer, Philadelphia, Pa.), and sodium starch glycolate were pre-blended by screening five times with a 20 mesh screen. For the granulating fluid, the hydroxypropylmethylcellulose was dissolved in hot water at 5% concentration then cooled to 20° C. The sodium lauryl sulfate was dissolved in the cooled granulating fluid at 1.5% concentration. Approximately 50% water (relative to the weight of total solids) was used to prepare the granulation; the granulating fluid was added dropwise to the premixed powders while mixing in a mortar and pestle. The granulation was dried at 50° C. for 2 hours, and then ground in a mortar and pestle prior to analysis.
XRPD patterns were obtained with a Bruker D8® ADVANCE X-ray powder diffractometer using copper K-alpha radiation. The instrument was equipped with parallel beam optics, and the tube voltage and amperage were set to 40 kV and 40 mA, respectively. Samples were scanned at a rate of 1.0 degree/minute from 2 to 40 degrees in angle 2-theta.

[4] = impurity profile by HPLC after annealing; format: physicochemical; conditions: annealed at 80° C. for 1 hour
Experimental: 4.0 g of drug substance were dissolved in 200 mL of a 50/50 (by volume) mixture of DCM and EtOH at 20° C. The mixture was stirred for about 1 hour. The resulting clear solution was spray dried in a Buchi B290 Mini Spray Dryer by pumping the solution through a 0.7 mm nozzle (commercially available from Buchi) at approximately 2 to 3 mL/minute. The system was operated at an inlet gas temperature of 100° C. and an outlet gas temperature of approximately 70° C. The solvent was removed to isolate the solid (approximately 3.0 g).
The HPLC method parameters utilized in Example 4 were as follows: System HP 1050, column-Waters C8 Symmetry Shield 5 um (4.6×150 mm), Mobile phase (“A”): 0.05% formic acid in water, Mobile phase (“B”): 0.05% formic acid in acetonitrile, injection volume: 10 μl, wavelength: 258 nm, and flow rate: 0.8 mL/minute. A gradient method was used according to the time table below.

peripheral-type benzodiazepine receptors, sequence (P30536 whole entry): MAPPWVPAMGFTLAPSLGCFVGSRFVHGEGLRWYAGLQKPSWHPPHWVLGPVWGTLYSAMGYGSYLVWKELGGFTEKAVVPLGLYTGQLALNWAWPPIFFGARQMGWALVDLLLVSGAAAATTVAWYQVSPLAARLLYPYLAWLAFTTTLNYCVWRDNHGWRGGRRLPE

SMILES	affinity for the peripheral-type benzodiazepine receptors [1]	stability profile to support use in a pharmaceutical product [2]	conversion of Form II to crystalline Form I during the wet granulation process (XRPD) [3]	changes in the impurity profile after the annealing process (HPLC) [4]
CN(C)C(=O)Cc1nn(-c2ccccc2)c(=O)c2c1c1ccc(Cl)cc1n2C [7-Chloro-N,N,5-trimethyl-4-oxo-3-phenyl-3,5-dihydro-4H-pyridazino[4,5-b]indole-1-acetamide]	high affinity			
CN(C)C(=O)Cc1nn(-c2ccccc2)c(=O)c2c1c1ccc(Cl)cc1n2C [Form II, 7-chloro-N,N,5-trimethyl-4-oxo-3-phenyl-3,5-dihydro-4H-pyridazino[4,5-b]indole-1-acetamide]		sufficient stability profile	no evidence of the Form II solid converting to crystalline Form I; also recorded: stable with respect to wet granulation	no changes in the impurity profile
